Laboratory results as given in ChEMBL document CHEMBL5604062, “ASAP - ZIKV NS2B-NS3 protease fluorescence dose response” (2024).
“And” between values parts separate entries of the source, which are not always exact repeats. Identical values can stand only once. Residues, ends and D or L forms follow the SMILES beside them. *: point of attachment. pNA = O=[N+]([O-])c1ccc(N*)cc1; Boc = CC(C)(C)OC(=O)*

Experiments:
[1] = molecular target: T1, Nonstructural protein 3 (Zika virus, UniProt A0A024AXB9); test: Functional biochemical assay to identify treatments for viral infectious disease that targets Zika NS2B-NS3 protease. Utilizing a direct enzyme activity measurement method, reading the fluorescence intensity is used to characterize the relative potency of inhibitors as IC50. Synthetic construct has been made based on Zika virus (strain PRVABC59) by Centre for Medicines Discovery, University of Oxford, and the assay has been performed by Enamine biological services, Bienta Ltd.The protocol is publicly available: dx.doi.org/10.17504/protocols.io.36wgqn273gk5/v1
T1 sequence (A0A024AXB9 whole entry): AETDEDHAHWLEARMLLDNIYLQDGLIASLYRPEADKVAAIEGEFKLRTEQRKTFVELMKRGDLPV

[2] = molecular target: T1, Nonstructural protein 3; test: Functional biochemical assay to identify treatments for viral infectious disease that targets Zika NS2B-NS3 protease. Utilizing a direct enzyme activity measurement method, reading the fluorescence intensity is used to characterize the relative potency of inhibitors as IC50.; parameters: species or system PRVABC59

## N=C(N)NCCC[C@H](NC(=O)c1nccs1)C(=O)N[C@@H](CCCCN)C(=O)N[C@@H](C(N)=O)c1ccc(OCc2ccc(C(F)(F)F)cc2)cc1
[1]
  IC50: 6210 nM and 4390 nM and 8320 nM and 7700 nM and 6310 nM and 6150 nM and 5910 nM and 5860 nM and 5590 nM

## N=C(N)NCCC[C@H](NC(=O)[C@H](Cc1ccc(CN)cc1)NC(=O)c1ccccc1)B(O)O
[2]
  IC50: 508 nM and 353 nM and 260 nM and 186 nM and 245 nM and 211 nM (2×) and 238 nM and < 2.49 µM (9×) and 73 nM and 247 nM and 292 nM and 237 nM and 241 nM and 141 nM and 262 nM and 254 nM and 233 nM
[1]
  IC50: 559 nM and 327 nM and 558 nM and 628 nM and 585 nM and 637 nM and 438 nM and 552 nM and 595 nM

## O=C(NC1CCOCC1)[C@H](Nc1ccc2c(c1)CNC2)c1cc(Cl)cc(C2CC2)c1
[1]
  IC50: 1020 nM and 213 nM

## N#Cc1cccc(-c2nc3c(C(=O)Nc4cccnc4)cc(Cl)cc3[nH]2)c1
[1]
  IC50: > 25000 nM

## N#Cc1cccc(-c2nc3c(C(=O)Nc4ccncc4)cc(Cl)cc3[nH]2)c1
[1]
  IC50: > 25000 nM

## N#Cc1cccc(-c2nc3c(C(=O)NCc4ccccc4)cc(Cl)cc3[nH]2)c1
[1]
  IC50: > 25000 nM

## CCOC(=O)[C@H](Nc1ccc2c(c1)CNC2)c1cc(Cl)cc(C2CC2)c1
[2]
  IC50: 64 nM and 87 nM

## O=C(Nc1ccc2c(c1)CNC2)c1ccc2c(c1)C1(CC1)C(=O)N2
[2]
  IC50: 1770 nM

## O=C1Cc2c(cccc2C(=O)Nc2ccc3c(c2)[C@H](O)CCO3)N1
[2]
  IC50: > 25000 nM
[1]
  IC50: > 25000 nM

## CSc1cc2c(cc1NC(=O)c1cc(F)cc3[nH]ncc13)CNC2
[2]
  IC50: 47 nM and 32 nM

## CN1CCC[C@H](c2nc3c(C(=O)Nc4ccc5c(c4)CNC5)cc(F)cc3[nH]2)C1=O
[2]
  IC50: 163 nM

## O=C(NCC(F)F)[C@H](Nc1ccc2c(c1)CNC2)c1cc(Br)cc2nc[nH]c12
[2]
  IC50: 44 nM and 37 nM
[1]
  IC50: 201 nM

## O=C1Cc2c(cccc2C(=O)Nc2ccc3[nH]nnc3c2)N1
[2]
  IC50: > 25000 nM

## CC(C)(C)OC(=O)N1Cc2cc(NC(=O)c3cc(Cl)cc4c3cnn4[C@@H]3CCCCO3)ccc2[C@H]1CO
[2]
  IC50: > 25000 nM

## CO[C@]1(C)C(=O)Nc2cc(F)cc(C(=O)Nc3ccc4c(c3)CNC4)c21
[2]
  IC50: 1190 nM

## O=C1Cc2c(cccc2C(=O)Nc2ccc3c(c2)CCNCC3)N1
[2]
  IC50: 1230 nM
[1]
  IC50: 2110 nM

## C[C@]1(OCCCO)C(=O)Nc2cc(F)cc(C(=O)Nc3ccc4c(c3)CNC4)c21
[2]
  IC50: 768 nM

## O=C(Nc1cnc2c(c1)CNC2)c1cc(F)cc2[nH]ncc12
[2]
  IC50: 27 nM and 15 nM
[1]
  IC50: 83 nM

## CC(C)CO[C@]1(C)C(=O)Nc2cc(F)cc(C(=O)Nc3ccc4c(c3)CNC4)c21
[2]
  IC50: 2480 nM

## Cc1cc(C(=O)Nc2ccc3c(c2)CNC3)cc2nn[nH]c12
[2]
  IC50: 3340 nM

## CC(C)c1nnc(-c2nc3c(C(=O)Nc4ccc5c(c4)CNC5)cc(F)cc3[nH]2)s1
[2]
  IC50: 161 nM and 559 nM

## O=C1Nc2ccc(C(=O)Nc3ccc4c(c3)CNC4)cc2C1=O
[2]
  IC50: 1470 nM and 1730 nM
[1]
  IC50: 8150 nM

## CCS(=O)(=O)c1ccc(Cl)cc1[C@H](Nc1ccc2c(c1)CNC2)C(=O)NCC(F)F
[2]
  IC50: 875 nM

## COc1ccc(-c2nc3c(C(=O)Nc4ccc5c(c4)CNC5)cc(F)cc3[nH]2)nn1
[2]
  IC50: 23 nM (2×) and 14 nM and 27 nM
[1]
  IC50: 90 nM and 98 nM

## Cc1c(C(=O)Nc2cc(C(=O)N3CC4(CCO4)C3)ccn2)cc(C2CC2)n1C
[2]
  IC50: > 25000 nM

## O=C1Cc2c(cccc2C(=O)Nc2cnc(OC3CCC3)nc2)N1
[2]
  IC50: > 25000 nM

## Cn1nc([C@H](Nc2cc([C@H]3CCOC3)ccn2)C(F)(F)F)cc1C1CC1
[2]
  IC50: > 25000 nM

## COc1cc(Cl)cc([C@H](Nc2ccc3c(c2)CNC3)C(=O)NCC(F)F)c1
[2]
  IC50: 33 nM and 21 nM

## Cc1cc(CN)cc(NC(=O)c2cccc3c2CC(=O)N3)c1
[2]
  IC50: 3050 nM

## Cc1c(C(=O)Nc2cc(C(=O)N(C)C3COC3)ccn2)cc(C2CC2)n1C
[2]
  IC50: > 25000 nM

## O=C1Cc2c(cccc2C(=O)Nc2ccc(Cl)c(CO)n2)N1
[2]
  IC50: > 25000 nM

## O=C(Nc1ccc2c(c1)CNC2)c1cc(F)cc(-c2cnc3n2CCC3)c1
[2]
  IC50: 236 nM

## N#Cc1cccc(-c2nc3c(C(=O)NCc4ccccn4)cc(Cl)cc3[nH]2)c1
[1]
  IC50: > 25000 nM

## N#CCc1cc(NC(=O)c2cc(F)cc3[nH]ncc23)cc2c1CNC2
[2]
  IC50: 16 nM and < 12 nM
[1]
  IC50: 70 nM and 79 nM

## C[C@]1(OCCO)C(=O)Nc2cc(F)cc(C(=O)Nc3ccc4c(c3)CNC4)c21
[2]
  IC50: 1140 nM

## O=C(NCC(F)F)[C@H](Nc1ccc2c(c1)CNC2)c1cc(Cl)cc(Cl)c1OCCN1CCOCC1
[2]
  IC50: 197 nM

## NCc1ccc(-c2csc3cc(C(=O)Nc4ccc5c(c4)CNC5)ccc23)cc1
[2]
  IC50: 888 nM and 889 nM

## O=C1Cc2c(cccc2C(=O)Nc2ccc3c(c2)CNCC3)N1
[2]
  IC50: 3030 nM

## N#Cc1cccc(-c2nc3c(C(=O)NCc4cccnc4)cc(Cl)cc3[nH]2)c1
[1]
  IC50: > 25000 nM

## O=C(NCC(F)F)[C@H](Nc1cnc2c(c1)CNC2)c1cc(Cl)cc(C2CC2)c1
[2]
  IC50: 20 nM and < 12 nM
[1]
  IC50: 114 nM and 107 nM

## O=C(Nc1ccc2c(c1)CNC2)c1cc(F)cc2[nH]c(-c3cnccc3O)nc12
[2]
  IC50: 130 nM

## NCc1csc2cc(C(=O)Nc3ccc4c(c3)CNC4)ccc12
[2]
  IC50: 125 nM and 219 nM
[1]
  IC50: 216 nM

## CC(C)Oc1ccc(Cl)cc1[C@H](Nc1ccc2c(c1)CNC2)C(=O)NCC(F)F
[2]
  IC50: 106 nM

## Cc1cc([C@H](Nc2ccc3c(c2)CNC3)C(=O)NCC(F)F)cc(C(F)(F)F)c1
[2]
  IC50: 19 nM and < 12 nM

## O=C(Nc1ccc2c(c1)CN[C@H]2[C@H](O)CO)c1cc(F)cc2[nH]ncc12
[2]
  IC50: 241 nM

## O=C(Nc1ccc2c(c1)CNC2)c1cc(Cl)cc2[nH]c(-c3cccc(F)c3)nc12
[1]
  IC50: 4210 nM

## O=C(Nc1ccc2c(c1)CNC2)c1cccc2c(C3CNC3)n[nH]c12
[2]
  IC50: 17 nM and 16 nM and < 12 nM
[1]
  IC50: 89 nM

## O=C1Cc2c(cccc2C(=O)Nc2ccc(O[C@H]3CCOC3)nc2)N1
[2]
  IC50: > 25000 nM

## O=C(NCC(F)F)[C@H](Nc1ccc2c(c1)CNC2)c1cc(Br)ccc1OCc1ccccn1
[2]
  IC50: 150 nM

## Clc1cc(CNc2ccc3c(c2)[C@@H]2CC[C@H]3N2)c2cn[nH]c2c1
[2]
  IC50: > 25000 nM

## O=C1Cc2c(cccc2C(=O)Nc2ccc3c(c2)CNCCO3)N1
[2]
  IC50: 1480 nM

## NCc1cccc(NC(=O)c2cccc3c2CC(=O)N3)c1
[2]
  IC50: 1540 nM
[1]
  IC50: 2320 nM

## CS(=O)(=O)c1cncc(-c2cc(F)cc(C(=O)Nc3ccc4c(c3)CNC4)c2)c1
[2]
  IC50: 88 nM and 77 nM
[1]
  IC50: 158 nM

## CC(=O)N(c1ccc2c(c1)CNC2)[C@H](C(=O)NCC(F)F)c1cc(Cl)cc(C2CC2)c1
[2]
  IC50: 1930 nM

## COCCO[C@]1(C)C(=O)Nc2cc(F)cc(C(=O)Nc3ccc4c(c3)CNC4)c21
[2]
  IC50: 3160 nM

## O=C(NCC(F)F)[C@H](Nc1ccc2c(c1)CNC2)c1cc(Br)ccc1C1CC1
[2]
  IC50: 358 nM
[1]
  IC50: 636 nM

## CCc1cnc2c(NC(=O)c3cccc4c3CC(=O)N4)cnn2c1
[2]
  IC50: > 25000 nM
[1]
  IC50: > 25000 nM

## O=C(Nc1ccc2c(c1)CNC2)c1cc(F)cc2[nH]c(-c3ccc(F)cc3O)nc12
[2]
  IC50: 39 nM and 24 nM

## N#Cc1c[nH]c2c(C(=O)Nc3ccc4c(c3)CNC4)cccc12
[2]
  IC50: 582 nM

## O=C1Cc2c(cccc2C(=O)Nc2ccc3c(n2)CNC3)N1
[2]
  IC50: 1420 nM

## O=C(NCC(F)F)[C@H](Nc1ccc2c(c1)CNC2)c1cc(Br)cc2ccccc12
[2]
  IC50: 99 nM and 77 nM
[1]
  IC50: 143 nM and 147 nM

## O=C(Nc1ccc2c(c1)CNC2)c1cc(Cl)cc2[nH]c(-c3ccccc3)nc12
[1]
  IC50: 2520 nM

## CN1CCc2c([nH]c3ccc(C(=O)Nc4ccc5c(c4)CNC5)cc23)C1=O
[2]
  IC50: 1170 nM

## Cc1[nH]c2c(C(=O)Nc3ccc4c(c3)CNC4)cccc2c1C
[2]
  IC50: 1190 nM

## O=C(Nc1cc2c(cn1)CNC2)c1cc(F)cc2[nH]ncc12
[2]
  IC50: 77 nM and 55 nM
[1]
  IC50: 163 nM

## C=CC[C@H]1NCc2cc(NCc3cc(Cl)cc4[nH]ncc34)ccc21
[2]
  IC50: > 25000 nM

## O=C(O)C[C@H]1NCc2cc(NC(=O)c3cc(Cl)cc4[nH]ncc34)ccc21
[2]
  IC50: 952 nM

## O=C(Nc1ccc2c(c1)CN[C@H]2CO)c1cc(F)cc2[nH]ncc12
[2]
  IC50: 125 nM

## O=C(NCC(F)F)[C@H](Nc1ccc2c(c1)CNC2)c1cc(Cl)ccc1OC[C@H]1CCCO1
[2]
  IC50: 129 nM

## O=C1CCc2cc(C(=O)Nc3ccc4c(c3)CNC4)cc(F)c2N1
[2]
  IC50: 1490 nM

## CC(C)O[C@]1(C)C(=O)Nc2cc(F)cc(C(=O)Nc3ccc4c(c3)CNC4)c21
[2]
  IC50: 1260 nM

## Cc1c(C(=O)Nc2cc(C(=O)N3CC(C(N)=O)C3)ccn2)cc(C2CC2)n1C
[2]
  IC50: > 25000 nM

## NCc1csc2cc(C(=O)Nc3cc([C@H]4CCOC4)ccn3)ccc12
[2]
  IC50: > 25000 nM

## N[C@H]1Cc2ccc(NC(=O)c3cccc4c3CC(=O)N4)cc2C1
[2]
  IC50: 2770 nM
[1]
  IC50: 7500 nM

## CSCC[C@H](NC(=O)OC(C)(C)C)C(=O)N1CCC[C@H]1C(=O)Nc1ccc([N+](=O)[O-])cc1 (Boc-Met-Pro-pNA)
[2]
  IC50: > 99500 nM

## CSCC[C@H](N)C(=O)N1CCC[C@H]1C(=O)Nc1ccc([N+](=O)[O-])cc1 (H-Met-Pro-pNA)
[2]
  IC50: > 99500 nM

## O=C(Nc1ccccc1)OCc1ccccc1 [BENZYL PHENYLCARBAMATE]
[2]
  IC50: > 100000 nM

## O=C(Nc1ccccc1)Oc1ccccc1 [PHENYL PHENYLCARBAMATE]
[2]
  IC50: > 100000 nM
